From publication PMC9886283, “Specific gene module pair-based target identification and drug discovery” (Frontiers in Pharmacology, 2023)
Counter-ions that a name gives are not always drawn. Like-named read-outs stand apart in the source and are kept apart here.

Experiments:
[1] = test system: N-methyl-D-aspartic acid (NMDA) receptor; conditions: uncompetitive, low-affinity, non-selective antagonist; ref Lipton, 2007; cited from earlier work
[2] = target: PI3Kα (Homo sapiens, UniProt P42336); experiment: PI3Kα kinase assay (ADP-Glo-based biochemical assay)
Chain of PI3Kα (P42336 whole entry): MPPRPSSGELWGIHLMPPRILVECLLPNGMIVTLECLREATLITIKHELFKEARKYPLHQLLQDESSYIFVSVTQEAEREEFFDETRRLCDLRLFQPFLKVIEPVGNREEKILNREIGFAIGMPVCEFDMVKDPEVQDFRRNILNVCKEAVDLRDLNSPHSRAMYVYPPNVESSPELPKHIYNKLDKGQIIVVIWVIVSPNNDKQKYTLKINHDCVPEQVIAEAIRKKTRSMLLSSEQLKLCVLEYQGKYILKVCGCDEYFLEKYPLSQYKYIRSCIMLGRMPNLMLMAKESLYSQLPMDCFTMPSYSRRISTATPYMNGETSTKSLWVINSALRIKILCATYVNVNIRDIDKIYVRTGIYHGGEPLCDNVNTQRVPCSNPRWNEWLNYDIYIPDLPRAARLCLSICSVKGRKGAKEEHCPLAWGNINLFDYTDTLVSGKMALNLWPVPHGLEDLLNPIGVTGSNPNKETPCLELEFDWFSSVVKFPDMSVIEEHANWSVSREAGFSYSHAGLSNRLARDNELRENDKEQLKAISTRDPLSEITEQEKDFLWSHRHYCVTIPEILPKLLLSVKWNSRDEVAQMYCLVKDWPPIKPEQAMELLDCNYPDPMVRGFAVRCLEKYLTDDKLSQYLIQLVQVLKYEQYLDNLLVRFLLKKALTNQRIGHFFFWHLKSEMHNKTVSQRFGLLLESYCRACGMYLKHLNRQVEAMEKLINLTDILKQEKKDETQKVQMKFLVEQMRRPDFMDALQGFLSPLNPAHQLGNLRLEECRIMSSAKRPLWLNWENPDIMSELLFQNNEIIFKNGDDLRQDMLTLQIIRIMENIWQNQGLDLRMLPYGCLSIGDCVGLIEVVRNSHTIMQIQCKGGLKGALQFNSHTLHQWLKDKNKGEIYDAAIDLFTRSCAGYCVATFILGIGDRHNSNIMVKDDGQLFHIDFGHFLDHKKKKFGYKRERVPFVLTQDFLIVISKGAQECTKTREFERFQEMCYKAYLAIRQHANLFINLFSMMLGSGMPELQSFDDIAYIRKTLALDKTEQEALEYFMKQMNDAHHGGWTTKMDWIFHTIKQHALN
Chain of PI3Kα (P27986 whole entry partner): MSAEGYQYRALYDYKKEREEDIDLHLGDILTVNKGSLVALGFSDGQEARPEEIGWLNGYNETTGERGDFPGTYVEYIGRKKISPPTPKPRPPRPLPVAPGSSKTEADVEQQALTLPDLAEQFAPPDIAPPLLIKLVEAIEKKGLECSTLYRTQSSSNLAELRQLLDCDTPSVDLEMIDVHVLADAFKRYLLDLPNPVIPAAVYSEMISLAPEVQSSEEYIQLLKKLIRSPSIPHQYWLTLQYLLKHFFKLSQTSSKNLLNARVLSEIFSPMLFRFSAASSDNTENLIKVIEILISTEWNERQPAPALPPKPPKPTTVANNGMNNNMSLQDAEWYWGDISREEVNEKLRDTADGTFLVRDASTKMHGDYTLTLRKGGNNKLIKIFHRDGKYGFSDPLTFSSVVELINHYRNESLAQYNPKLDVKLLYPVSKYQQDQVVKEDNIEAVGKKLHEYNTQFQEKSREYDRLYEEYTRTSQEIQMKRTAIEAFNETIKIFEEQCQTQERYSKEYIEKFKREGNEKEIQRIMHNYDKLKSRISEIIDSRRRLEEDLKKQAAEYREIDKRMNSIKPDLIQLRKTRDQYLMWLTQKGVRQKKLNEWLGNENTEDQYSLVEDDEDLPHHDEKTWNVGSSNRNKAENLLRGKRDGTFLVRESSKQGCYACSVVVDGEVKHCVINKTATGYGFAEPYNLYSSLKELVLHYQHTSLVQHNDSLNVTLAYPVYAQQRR
Experimental: (§1) This study aims to determine the effect of test compounds on PI3Kα/β/δ enzyme activity using ADP-Glo-based biochemical assay (Vendor: Promega, Cat#: V9102), following the manufacturer’s instruction. […] Then, the IC50s were calculated by fitting % inhibition values and the log of compound concentrations to the hill slope with the variable slope (called the variable slope model or four-parameter dose-response curve), and the log (inhibitor) vs. response curve was built by GraphPad Prism version 7.0 (GraphPad Software). Data are presented as mean ± SEM, with n = 3 for each drug dose.

[3] = target: PI3Kδ (Homo sapiens, UniProt O00329); experiment: PI3Kδ kinase assay (ADP-Glo-based biochemical assay)
Chain of PI3Kδ (O00329 whole entry): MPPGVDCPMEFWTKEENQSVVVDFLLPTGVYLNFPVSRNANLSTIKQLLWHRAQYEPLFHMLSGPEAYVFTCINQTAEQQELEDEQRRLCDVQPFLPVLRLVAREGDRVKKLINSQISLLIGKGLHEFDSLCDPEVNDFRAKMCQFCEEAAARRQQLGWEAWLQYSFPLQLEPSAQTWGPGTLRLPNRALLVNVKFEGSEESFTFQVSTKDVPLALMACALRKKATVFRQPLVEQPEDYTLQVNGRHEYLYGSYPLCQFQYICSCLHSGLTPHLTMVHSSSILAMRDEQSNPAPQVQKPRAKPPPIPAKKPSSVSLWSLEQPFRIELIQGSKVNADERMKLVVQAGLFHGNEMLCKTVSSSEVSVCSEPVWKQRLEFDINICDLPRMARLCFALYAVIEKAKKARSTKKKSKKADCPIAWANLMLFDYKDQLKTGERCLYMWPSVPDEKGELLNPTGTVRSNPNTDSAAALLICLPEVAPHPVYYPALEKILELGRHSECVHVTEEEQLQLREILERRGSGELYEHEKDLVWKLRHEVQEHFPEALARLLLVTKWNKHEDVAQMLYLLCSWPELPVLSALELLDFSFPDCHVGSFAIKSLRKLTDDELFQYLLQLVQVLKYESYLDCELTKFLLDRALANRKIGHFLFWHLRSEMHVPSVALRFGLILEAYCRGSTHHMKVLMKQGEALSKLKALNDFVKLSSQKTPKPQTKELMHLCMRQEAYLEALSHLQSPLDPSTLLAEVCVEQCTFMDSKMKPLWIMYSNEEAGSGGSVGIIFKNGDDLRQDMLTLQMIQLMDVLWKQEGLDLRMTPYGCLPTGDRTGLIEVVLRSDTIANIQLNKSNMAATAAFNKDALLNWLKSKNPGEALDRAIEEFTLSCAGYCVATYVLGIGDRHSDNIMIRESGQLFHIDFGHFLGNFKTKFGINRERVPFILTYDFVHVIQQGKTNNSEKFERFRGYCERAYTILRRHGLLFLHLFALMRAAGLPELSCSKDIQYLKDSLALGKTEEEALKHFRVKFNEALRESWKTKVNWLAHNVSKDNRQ
Chain of PI3Kδ (P27986 whole entry partner): as the sequence (P27986 whole entry partner) above
Experimental: as §1

[4] = target: PI3Kβ (Homo sapiens, UniProt P42338); experiment: PI3Kβ kinase assay (ADP-Glo-based biochemical assay); conditions: n = 3 per dose
Chain of PI3Kβ (P42338 whole entry): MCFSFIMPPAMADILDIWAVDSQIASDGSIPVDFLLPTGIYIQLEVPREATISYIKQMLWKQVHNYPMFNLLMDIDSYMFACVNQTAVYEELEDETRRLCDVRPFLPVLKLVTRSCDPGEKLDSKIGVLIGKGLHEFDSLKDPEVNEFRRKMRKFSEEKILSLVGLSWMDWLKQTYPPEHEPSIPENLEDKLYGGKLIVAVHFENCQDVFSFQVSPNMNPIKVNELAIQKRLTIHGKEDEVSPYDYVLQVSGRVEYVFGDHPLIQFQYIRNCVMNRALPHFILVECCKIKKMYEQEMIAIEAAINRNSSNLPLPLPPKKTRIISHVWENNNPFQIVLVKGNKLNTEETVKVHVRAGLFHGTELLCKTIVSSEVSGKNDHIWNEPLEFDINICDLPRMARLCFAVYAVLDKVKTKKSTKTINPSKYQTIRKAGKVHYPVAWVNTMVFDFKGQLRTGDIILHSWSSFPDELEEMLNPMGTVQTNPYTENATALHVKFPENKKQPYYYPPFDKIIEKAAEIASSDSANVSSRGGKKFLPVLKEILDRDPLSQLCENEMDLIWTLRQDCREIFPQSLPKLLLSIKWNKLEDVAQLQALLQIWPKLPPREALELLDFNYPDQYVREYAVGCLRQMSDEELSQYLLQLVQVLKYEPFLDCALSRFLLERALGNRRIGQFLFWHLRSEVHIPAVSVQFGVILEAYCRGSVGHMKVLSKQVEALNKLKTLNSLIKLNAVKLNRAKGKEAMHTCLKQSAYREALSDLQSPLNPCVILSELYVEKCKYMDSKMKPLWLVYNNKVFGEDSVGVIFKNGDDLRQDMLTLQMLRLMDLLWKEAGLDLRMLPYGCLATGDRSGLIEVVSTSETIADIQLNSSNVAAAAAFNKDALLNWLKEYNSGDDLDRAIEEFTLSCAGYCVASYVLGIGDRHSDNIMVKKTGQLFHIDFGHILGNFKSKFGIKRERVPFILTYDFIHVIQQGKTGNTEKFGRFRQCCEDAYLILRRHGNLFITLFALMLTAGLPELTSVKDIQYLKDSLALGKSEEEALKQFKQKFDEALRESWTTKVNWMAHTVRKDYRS
Chain of PI3Kβ (P27986 whole entry partner): as the sequence (P27986 whole entry partner) above
Experimental: as §1

[5] = ADP-Glo, n = 3 per dose, read-out: IC50 PI3Kα
[6] = ADP-Glo, n = 3 per dose, read-out: IC50 PI3Kδ

Row | SMILES | affinity for NMDA receptor [1] | IC50 [2, 5] [µM] | IC50 [3, 6] [µM] | IC50 [4] [µM] | IC50 [2] [µM] | IC50 [3] [µM]
1 | CC12CC3CC(C)(C1)CC(N)(C3)C2 [memantine] | micromolar range | – | – | – | – | –
2 | COc1ccc(CCN2CCC(Nc3nc4ccccc4n3Cc3ccc(F)cc3)CC2)cc1 [astemizole] | – | 18 | 6 | 8.7 | – | –
3 | c1nc2nc(Nc3ccc(N4CCOCC4)cc3)nc(NC3CCCCC3)c2[nH]1 [reversine] | – | – | – | – | 12 | 3.5
4 | O=C(c1ccc(OCCN2CCCCC2)cc1)c1c(-c2ccc(O)cc2)sc2cc(O)ccc12 [Raloxifene HCl, raloxifene HCl] | – | 16 | 4.3 | 8.4 | – | –
5 | CC/C(=C(\c1ccccc1)c1ccc(OCCN(C)C)cc1)c1ccccc1 [Tamoxifen, tamoxifen] | – | 19 | 10 | 14 | – | –
6 | CO[C@H]1/C=C\C=C(/C)C(=O)NC2=CC(=O)C(NCCN(C)C)=C(C[C@@H](C)C[C@H](OC)[C@H](O)[C@@H](C)/C=C(\C)[C@@H]1OC(N)=O)C2=O [alvespimycin] | – | 93 | 28 | 69 | – | –
7 | CC(C)NCCCn1c(Sc2cc3c(cc2I)OCO3)nc2c(N)ncnc21 [PU-H71] | – | – | 20 | – | – | –
